Test results as given in ChEMBL document CHEMBL3400015, “Tertiary amides of Salinomycin: A new group of antibacterial agents against Bacillus anthracis and methicillin-resistant Staphylococcus epidermidis” (Bioorg Med Chem Lett, 2015).

What was measured:
[1] = system: Staphylococcus aureus; assay: Antimicrobial activity against Staphylococcus aureus ATCC 25923 after 18 hrs by twofold serial broth dilution method; type: functional; conditions: ATCC 25923, 18 h
[2] = system: Staphylococcus aureus; assay: Antimicrobial activity against Staphylococcus aureus ATCC 6538 after 18 hrs by twofold serial broth dilution method; type: functional; conditions: ATCC 6538, 18 h
[3] = system: Staphylococcus aureus; assay: Antimicrobial activity against Staphylococcus aureus […] after 18 hrs by twofold serial broth dilution method; type: functional
[4] = system: Staphylococcus epidermidis; assay: Antimicrobial activity against Staphylococcus epidermidis ATCC 35984 after 18 hrs by twofold serial broth dilution method; type: functional; conditions: ATCC 35984, 18 h
[5] = system: Escherichia coli; assay: Antimicrobial activity against Escherichia coli ATCC 10538 after 18 hrs by twofold serial broth dilution method; type: functional; conditions: ATCC 10538, 18 h
[6] = system: Escherichia coli; assay: Antimicrobial activity against Escherichia coli NCTC 8196 after 18 hrs by twofold serial broth dilution method; type: functional; conditions: NCTC 8196, 18 h
[7] = system: Pseudomonas aeruginosa; assay: Antimicrobial activity against Pseudomonas aeruginosa ATCC 15442 after 18 hrs by twofold serial broth dilution method; type: functional; conditions: ATCC 15442, 18 h
[8] = system: Pseudomonas aeruginosa; assay: Antimicrobial activity against Pseudomonas aeruginosa NCTC 6749 after 18 hrs by twofold serial broth dilution method; type: functional; conditions: NCTC 6749, 18 h
[9] = system: Bacillus anthracis; assay: Antimicrobial activity against Bacillus anthracis 34F2 after 18 hrs by twofold serial broth dilution method; type: functional; conditions: 34F2, 18 h
[10] = system: Staphylococcus aureus; assay: Bactericidal activity against Staphylococcus aureus ATCC 25923 after 24 hrs; type: functional; conditions: ATCC 25923, 24 h, read-out: MBC99.9
[11] = system: Staphylococcus aureus; assay: Bactericidal activity against Staphylococcus aureus ATCC 6538 after 24 hrs; type: functional; conditions: ATCC 6538, 24 h, read-out: MBC99.9
[12] = system: Staphylococcus aureus; assay: Bactericidal activity against Staphylococcus aureus […] after 24 hrs; type: functional; conditions: read-out: MBC99.9
[13] = system: Staphylococcus epidermidis; assay: Bactericidal activity against Staphylococcus epidermidis ATCC 35984 after 24 hrs; type: functional; conditions: ATCC 35984, 24 h, read-out: MBC99.9
[14] = system: Escherichia coli; assay: Bactericidal activity against Escherichia coli ATCC 10538 after 24 hrs; type: functional; conditions: ATCC 10538, 24 h, read-out: MBC99.9
[15] = system: Escherichia coli; assay: Bactericidal activity against Escherichia coli ATCC 25922 after 24 hrs; type: functional; conditions: ATCC 25922, 24 h, read-out: MBC99.9
[16] = system: Escherichia coli; assay: Bactericidal activity against Escherichia coli NCTC 8196 after 24 hrs; type: functional; conditions: NCTC 8196, 24 h, read-out: MBC99.9
[17] = system: Pseudomonas aeruginosa; assay: Bactericidal activity against Pseudomonas aeruginosa ATCC 15442 after 24 hrs; type: functional; conditions: ATCC 15442, 24 h, read-out: MBC99.9
[18] = system: Pseudomonas aeruginosa; assay: Bactericidal activity against Pseudomonas aeruginosa ATCC 27853 after 24 hrs; type: functional; conditions: ATCC 27853, 24 h, read-out: MBC99.9
[19] = system: Staphylococcus epidermidis; assay: Antimicrobial activity against methicillin-resistant Staphylococcus epidermidis isolate 403/10 after 18 hrs by twofold serial broth dilution method; type: functional; conditions: isolate 403/10, 18 h
[20] = system: Staphylococcus epidermidis; assay: Antimicrobial activity against methicillin-resistant Staphylococcus epidermidis isolate 404/10 after 18 hrs by twofold serial broth dilution method; type: functional; conditions: isolate 404/10, 18 h
[21] = system: Staphylococcus epidermidis; assay: Antimicrobial activity against methicillin-resistant Staphylococcus epidermidis isolate 405/10 after 18 hrs by twofold serial broth dilution method; type: functional; conditions: isolate 405/10, 18 h
[22] = system: Staphylococcus epidermidis; assay: Antimicrobial activity against methicillin-resistant Staphylococcus epidermidis isolate 409/10 after 18 hrs by twofold serial broth dilution method; type: functional; conditions: isolate 409/10, 18 h
[23] = system: Staphylococcus epidermidis; assay: Antimicrobial activity against methicillin-resistant Staphylococcus epidermidis isolate 422/10 after 18 hrs by twofold serial broth dilution method; type: functional; conditions: isolate 422/10, 18 h
[24] = system: Staphylococcus epidermidis; assay: Antimicrobial activity against methicillin-resistant Staphylococcus epidermidis isolate 424/10 after 18 hrs by twofold serial broth dilution method; type: functional; conditions: isolate 424/10, 18 h
[25] = system: Staphylococcus epidermidis; assay: Antimicrobial activity against methicillin-resistant Staphylococcus epidermidis isolate 454/11 after 18 hrs by twofold serial broth dilution method; type: functional; conditions: isolate 454/11, 18 h
[26] = system: Staphylococcus epidermidis; assay: Antimicrobial activity against methicillin-resistant Staphylococcus epidermidis isolate 455/11 after 18 hrs by twofold serial broth dilution method; type: functional; conditions: isolate 455/11, 18 h
[27] = system: Staphylococcus epidermidis; assay: Antimicrobial activity against methicillin-resistant Staphylococcus epidermidis isolate 457/11 after 18 hrs by twofold serial broth dilution method; type: functional; conditions: isolate 457/11, 18 h
[28] = system: Staphylococcus epidermidis; assay: Antimicrobial activity against methicillin-resistant Staphylococcus epidermidis isolate 459/11 after 18 hrs by twofold serial broth dilution method; type: functional; conditions: isolate 459/11, 18 h
[29] = system: Staphylococcus epidermidis; assay: Antimicrobial activity against methicillin-resistant Staphylococcus epidermidis isolate 461/11 after 18 hrs by twofold serial broth dilution method; type: functional; conditions: isolate 461/11, 18 h
[30] = system: Staphylococcus epidermidis; assay: Antimicrobial activity against methicillin-resistant Staphylococcus epidermidis isolate 469/11 after 18 hrs by twofold serial broth dilution method; type: functional; conditions: isolate 469/11, 18 h
[31] = system: Staphylococcus epidermidis; assay: Antimicrobial activity against methicillin-resistant Staphylococcus epidermidis isolate 470/11 after 18 hrs by twofold serial broth dilution method; type: functional; conditions: isolate 470/11, 18 h
[32] = system: Staphylococcus epidermidis; assay: Bactericidal activity against methicillin-resistant Staphylococcus epidermidis isolate 403/10 after 24 hrs; type: functional; conditions: isolate 403/10, 24 h, read-out: MBC99.9
[33] = system: Staphylococcus epidermidis; assay: Bactericidal activity against methicillin-resistant Staphylococcus epidermidis isolate 404/10 after 24 hrs; type: functional; conditions: isolate 404/10, 24 h, read-out: MBC99.9
[34] = system: Staphylococcus epidermidis; assay: Bactericidal activity against methicillin-resistant Staphylococcus epidermidis isolate 405/10 after 24 hrs; type: functional; conditions: isolate 405/10, 24 h, read-out: MBC99.9
[35] = system: Staphylococcus epidermidis; assay: Bactericidal activity against methicillin-resistant Staphylococcus epidermidis isolate 409/10 after 24 hrs; type: functional; conditions: isolate 409/10, 24 h, read-out: MBC99.9
[36] = system: Staphylococcus epidermidis; assay: Bactericidal activity against methicillin-resistant Staphylococcus epidermidis isolate 422/10 after 24 hrs; type: functional; conditions: isolate 422/10, 24 h, read-out: MBC99.9
[37] = system: Staphylococcus epidermidis; assay: Bactericidal activity against methicillin-resistant Staphylococcus epidermidis isolate 424/10 after 24 hrs; type: functional; conditions: isolate 424/10, 24 h, read-out: MBC99.9
[38] = system: Staphylococcus epidermidis; assay: Bactericidal activity against methicillin-resistant Staphylococcus epidermidis isolate 454/11 after 24 hrs; type: functional; conditions: isolate 454/11, 24 h, read-out: MBC99.9
[39] = system: Staphylococcus epidermidis; assay: Bactericidal activity against methicillin-resistant Staphylococcus epidermidis isolate 455/11 after 24 hrs; type: functional; conditions: isolate 455/11, 24 h, read-out: MBC99.9
[40] = system: Staphylococcus epidermidis; assay: Bactericidal activity against methicillin-resistant Staphylococcus epidermidis isolate 460/11 after 24 hrs; type: functional; conditions: isolate 460/11, 24 h, read-out: MBC99.9
[41] = system: Staphylococcus epidermidis; assay: Bactericidal activity against methicillin-resistant Staphylococcus epidermidis isolate 469/11 after 24 hrs; type: functional; conditions: isolate 469/11, 24 h, read-out: MBC99.9
[42] = system: Bacillus subtilis; assay: Genotoxicity in rec-positive Bacillus subtilis H17 at 2 ug/9 mm disc after 24 hrs by disc diffusion method; type: toxicity, organism-based
[43] = system: Bacillus subtilis; assay: Genotoxicity in rec-negative Bacillus subtilis M45 at 2 ug/9 mm disc after 24 hrs by disc diffusion method; type: toxicity, organism-based

CCCN(CCC)C(=O)[C@H](CC)[C@H]1CC[C@H](C)[C@H]([C@@H](C)[C@H](O)[C@H](C)C(=O)[C@H](CC)[C@H]2O[C@]3(C=C[C@@H](O)[C@]4(CC[C@@](C)([C@H]5CC[C@](O)(CC)[C@H](C)O5)O4)O3)[C@H](C)C[C@@H]2C)O1
28 mm: diameter of the inhibition zone (DIZ) [42]
1 µg/mL: MIC [1] | MIC [2]
4 µg/mL: MIC [9] | MIC [19] | MIC [20] | MIC [25] | MIC [28] | MIC [29] | MIC [30]
128 µg/mL: MBC [32] | MBC [33] | MBC [34] | MBC [35] | MBC [36] | MBC [38] | MBC [41]
2 µg/mL: MIC [3] | MIC [4]
> 256 µg/mL: MIC [5] | MIC [6] | MIC [7] | MIC [8] | MBC [10] | MBC [14] | MBC [15] | MBC [16] | MBC [17] | MBC [18]
8 µg/mL: MIC [21] | MIC [22] | MIC [23] | MIC [24] | MIC [26] | MIC [27] | MIC [31]
256 µg/mL: MBC [11] | MBC [12] | MBC [13] | MBC [37] | MBC [39] | MBC [40]
26 mm: diameter of the inhibition zone (DIZ) [43]

CC[C@@H](C(=O)[C@@H](C)[C@@H](O)[C@H](C)[C@@H]1O[C@@H]([C@@H](CC)C(=O)N(CCOC)CCOC)CC[C@@H]1C)[C@H]1O[C@]2(C=C[C@@H](O)[C@]3(CC[C@@](C)([C@H]4CC[C@](O)(CC)[C@H](C)O4)O3)O2)[C@H](C)C[C@@H]1C
128 µg/mL: MIC [3] | MIC [4] | MIC [20] | MIC [22] | MIC [23] | MIC [26] | MIC [27] | MIC [28] | MIC [30]
64 µg/mL: MIC [1] | MIC [2] | MIC [19] | MIC [25]
> 256 µg/mL: MIC [5] | MIC [6] | MIC [7] | MIC [8] | MBC [10] | MBC [11] | MBC [12] | MBC [13] | MBC [14] | MBC [15] | MBC [16] | MBC [17] | MBC [18] | MBC [32] | MBC [33] | MBC [34] | MBC [35] | MBC [36] | MBC [37] | MBC [38] | MBC [39] | MBC [40] | MBC [41]
13 mm: diameter of the inhibition zone (DIZ) [42]
14 mm: diameter of the inhibition zone (DIZ) [43]
512 µg/mL: MIC [9]
256 µg/mL: MIC [21] | MIC [24] | MIC [29] | MIC [31]
